The results in this text go back to article PMC4076210, “Discovery of Novel AKT Inhibitors with Enhanced Anti-Tumor Effects in Combination with the MEK Inhibitor” (PLoS ONE, 2014).

Common to all, as to experiment: Kinase panel
Holding throughout (type): biochemical

Assay [1] has as its target T1, JAK3(h) (Homo sapiens, UniProt P52333).
T1 construct: purchased Millipore KinaseProfiler
T1 sequence (P52333 1-1124): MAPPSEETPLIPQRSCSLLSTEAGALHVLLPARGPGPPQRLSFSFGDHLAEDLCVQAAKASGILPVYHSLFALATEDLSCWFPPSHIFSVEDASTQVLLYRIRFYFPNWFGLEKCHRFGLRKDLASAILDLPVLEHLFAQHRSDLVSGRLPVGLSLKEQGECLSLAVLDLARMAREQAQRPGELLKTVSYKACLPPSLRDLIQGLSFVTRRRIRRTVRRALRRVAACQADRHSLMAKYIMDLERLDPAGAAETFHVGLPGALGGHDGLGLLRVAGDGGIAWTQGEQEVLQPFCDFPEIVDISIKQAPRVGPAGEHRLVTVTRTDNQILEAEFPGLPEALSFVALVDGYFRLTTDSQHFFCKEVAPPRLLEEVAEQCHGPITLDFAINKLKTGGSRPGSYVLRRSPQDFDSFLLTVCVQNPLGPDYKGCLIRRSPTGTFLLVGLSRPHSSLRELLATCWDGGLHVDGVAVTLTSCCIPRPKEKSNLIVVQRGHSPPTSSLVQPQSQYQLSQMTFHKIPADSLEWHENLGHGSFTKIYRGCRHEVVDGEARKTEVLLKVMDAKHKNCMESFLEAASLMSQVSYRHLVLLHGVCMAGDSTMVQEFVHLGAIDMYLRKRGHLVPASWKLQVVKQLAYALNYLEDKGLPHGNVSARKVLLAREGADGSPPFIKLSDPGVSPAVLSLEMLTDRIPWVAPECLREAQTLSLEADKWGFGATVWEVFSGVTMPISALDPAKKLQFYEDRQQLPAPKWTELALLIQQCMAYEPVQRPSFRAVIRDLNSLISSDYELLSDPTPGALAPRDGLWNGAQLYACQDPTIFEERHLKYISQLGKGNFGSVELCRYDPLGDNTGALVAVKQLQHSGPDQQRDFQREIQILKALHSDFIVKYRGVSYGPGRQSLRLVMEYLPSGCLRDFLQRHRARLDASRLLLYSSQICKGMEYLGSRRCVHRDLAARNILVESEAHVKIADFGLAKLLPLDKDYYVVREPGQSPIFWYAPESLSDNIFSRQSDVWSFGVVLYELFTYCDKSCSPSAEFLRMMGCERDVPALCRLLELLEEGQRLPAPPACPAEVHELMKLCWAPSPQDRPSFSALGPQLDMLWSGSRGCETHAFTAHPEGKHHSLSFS

The target in assay [2] is T2, DRAK1(h) (Homo sapiens, UniProt Q9UEE5).
T2 construct: purchased Millipore KinaseProfiler
T2 sequence (Q9UEE5 1-414): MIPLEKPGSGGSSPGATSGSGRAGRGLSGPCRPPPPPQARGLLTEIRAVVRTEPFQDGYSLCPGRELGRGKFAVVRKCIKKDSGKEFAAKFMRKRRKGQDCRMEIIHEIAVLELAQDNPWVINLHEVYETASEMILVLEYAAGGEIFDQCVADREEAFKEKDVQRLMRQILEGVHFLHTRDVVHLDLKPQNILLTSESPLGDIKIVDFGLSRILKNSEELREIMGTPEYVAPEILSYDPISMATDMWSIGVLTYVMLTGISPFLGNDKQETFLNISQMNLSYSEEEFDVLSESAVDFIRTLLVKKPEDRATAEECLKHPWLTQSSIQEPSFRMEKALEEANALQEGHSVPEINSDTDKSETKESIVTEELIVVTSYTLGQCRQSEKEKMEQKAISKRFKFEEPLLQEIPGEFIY

For assay [3], the target named is T3, MAPK1(h) (Homo sapiens, UniProt P27361).
T3 construct: purchased Millipore KinaseProfiler
T3 sequence (P27361 whole entry): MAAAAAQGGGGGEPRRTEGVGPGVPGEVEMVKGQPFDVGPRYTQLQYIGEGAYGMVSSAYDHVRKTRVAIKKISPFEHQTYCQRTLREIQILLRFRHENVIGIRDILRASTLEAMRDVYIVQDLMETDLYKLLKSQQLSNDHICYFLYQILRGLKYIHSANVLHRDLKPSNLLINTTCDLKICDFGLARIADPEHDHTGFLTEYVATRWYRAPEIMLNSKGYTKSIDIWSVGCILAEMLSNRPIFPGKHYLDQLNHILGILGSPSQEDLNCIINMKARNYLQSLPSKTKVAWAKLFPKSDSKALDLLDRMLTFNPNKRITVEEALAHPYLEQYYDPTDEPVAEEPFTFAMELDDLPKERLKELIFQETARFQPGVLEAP

Assay [4] has as its target T4, Itk(h) (Homo sapiens, UniProt Q08881).
T4 construct: purchased Millipore KinaseProfiler
T4 sequence (Q08881 1-620): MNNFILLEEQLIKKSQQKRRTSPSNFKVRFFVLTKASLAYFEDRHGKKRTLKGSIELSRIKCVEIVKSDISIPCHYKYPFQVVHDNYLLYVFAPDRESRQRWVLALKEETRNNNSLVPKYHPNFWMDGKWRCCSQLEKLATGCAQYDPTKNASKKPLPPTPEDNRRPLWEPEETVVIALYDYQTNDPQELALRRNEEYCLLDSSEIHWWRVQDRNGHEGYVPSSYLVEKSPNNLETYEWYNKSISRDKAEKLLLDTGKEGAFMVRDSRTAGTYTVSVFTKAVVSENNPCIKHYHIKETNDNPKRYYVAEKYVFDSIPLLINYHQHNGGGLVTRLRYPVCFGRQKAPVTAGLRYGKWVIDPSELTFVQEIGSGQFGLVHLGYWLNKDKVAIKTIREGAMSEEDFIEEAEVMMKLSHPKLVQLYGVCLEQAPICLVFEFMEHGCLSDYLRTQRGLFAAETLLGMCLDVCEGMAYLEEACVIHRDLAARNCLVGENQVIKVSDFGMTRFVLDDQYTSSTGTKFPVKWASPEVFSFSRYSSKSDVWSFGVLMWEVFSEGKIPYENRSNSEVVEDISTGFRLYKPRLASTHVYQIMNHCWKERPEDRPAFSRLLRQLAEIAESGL

Assay [5] has as its target T5, Flt4(h) (Homo sapiens, UniProt P35916).
T5 construct: purchased Millipore KinaseProfiler

Assay [6] has as its target T6, CK2(h) (Homo sapiens, UniProt P68400).
T6 construct: purchased Millipore KinaseProfiler

Where two headings read alike, the source gives them in different places.

T5 sequence (P35916 25-1363): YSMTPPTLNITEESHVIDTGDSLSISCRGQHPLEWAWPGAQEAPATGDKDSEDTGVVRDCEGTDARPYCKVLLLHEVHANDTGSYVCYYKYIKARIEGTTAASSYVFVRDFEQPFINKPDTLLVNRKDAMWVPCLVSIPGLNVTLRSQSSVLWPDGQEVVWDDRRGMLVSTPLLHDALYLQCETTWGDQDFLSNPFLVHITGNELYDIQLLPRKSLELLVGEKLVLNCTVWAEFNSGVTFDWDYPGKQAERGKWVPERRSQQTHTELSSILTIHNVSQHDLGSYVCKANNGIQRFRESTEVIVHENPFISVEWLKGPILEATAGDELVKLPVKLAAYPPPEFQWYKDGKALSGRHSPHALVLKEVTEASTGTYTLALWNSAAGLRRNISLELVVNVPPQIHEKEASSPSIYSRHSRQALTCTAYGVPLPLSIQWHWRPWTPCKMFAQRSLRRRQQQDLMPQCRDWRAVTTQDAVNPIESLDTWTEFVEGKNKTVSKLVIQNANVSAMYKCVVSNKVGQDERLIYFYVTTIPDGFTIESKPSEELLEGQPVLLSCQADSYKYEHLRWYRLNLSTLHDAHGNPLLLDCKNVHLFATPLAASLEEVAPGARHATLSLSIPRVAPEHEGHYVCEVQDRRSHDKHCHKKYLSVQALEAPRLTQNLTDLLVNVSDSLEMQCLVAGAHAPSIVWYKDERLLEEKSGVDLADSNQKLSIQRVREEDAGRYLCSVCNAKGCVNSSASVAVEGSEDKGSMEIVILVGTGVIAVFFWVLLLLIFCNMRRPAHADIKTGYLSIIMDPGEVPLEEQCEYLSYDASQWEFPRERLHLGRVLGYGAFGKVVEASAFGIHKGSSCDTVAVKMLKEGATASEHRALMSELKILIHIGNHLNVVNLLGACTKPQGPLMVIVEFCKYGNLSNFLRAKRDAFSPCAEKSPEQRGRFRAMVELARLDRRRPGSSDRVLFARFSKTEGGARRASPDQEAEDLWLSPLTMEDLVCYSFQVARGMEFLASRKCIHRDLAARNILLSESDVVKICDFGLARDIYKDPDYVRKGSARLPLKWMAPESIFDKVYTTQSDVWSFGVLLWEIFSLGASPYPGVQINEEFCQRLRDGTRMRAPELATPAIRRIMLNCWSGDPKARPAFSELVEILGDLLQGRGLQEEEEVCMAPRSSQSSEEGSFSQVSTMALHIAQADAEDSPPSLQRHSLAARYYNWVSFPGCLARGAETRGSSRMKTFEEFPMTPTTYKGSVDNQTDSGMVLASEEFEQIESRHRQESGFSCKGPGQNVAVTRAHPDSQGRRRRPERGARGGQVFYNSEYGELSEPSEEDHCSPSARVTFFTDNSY
T6 sequence (P68400 whole entry): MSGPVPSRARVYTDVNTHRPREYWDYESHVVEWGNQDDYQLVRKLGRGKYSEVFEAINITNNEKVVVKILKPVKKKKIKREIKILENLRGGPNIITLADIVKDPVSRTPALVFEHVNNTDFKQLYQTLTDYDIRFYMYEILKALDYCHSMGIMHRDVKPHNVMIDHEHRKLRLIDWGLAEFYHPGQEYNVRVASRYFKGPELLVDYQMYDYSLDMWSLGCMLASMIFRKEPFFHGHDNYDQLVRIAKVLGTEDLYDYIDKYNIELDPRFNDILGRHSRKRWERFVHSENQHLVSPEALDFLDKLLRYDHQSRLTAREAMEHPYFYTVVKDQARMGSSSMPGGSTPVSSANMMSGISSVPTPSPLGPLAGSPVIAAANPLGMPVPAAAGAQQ
T6 sequence (P67870 whole entry partner): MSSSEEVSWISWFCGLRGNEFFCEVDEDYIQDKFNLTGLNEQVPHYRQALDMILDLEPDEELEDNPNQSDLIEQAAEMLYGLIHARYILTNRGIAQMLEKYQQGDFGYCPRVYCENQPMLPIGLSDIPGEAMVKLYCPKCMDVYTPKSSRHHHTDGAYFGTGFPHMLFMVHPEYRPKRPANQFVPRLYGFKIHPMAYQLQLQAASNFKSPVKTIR

What is called inhibition is the drop in the measured response relative to a control, in per cent. As to `Cn1ncc(Cl)c1-c1cc(C(=O)N[C@H](CN)Cc2cccc(F)c2)sc1Cl` [GSK2110183], the inhibition at 0.5 µM was 6% in assay [1]; 10% in assay [2]; -26% in assay [3]; 0% in assay [4]; 4% in assay [5]; 3% in assay [6]. The inhibition at 10 µM in assay [1] was -3%; in assay [2], 40%; in assay [3] it was 10%; in assay [4], 2%; in assay [5], 21%; in assay [6], 8%.
`Cn1ncc(Cl)c1-c1cc(C(=O)N[C@H](CN)Cc2ccc(F)c(F)c2)oc1Cl` [GSK2141795]: the inhibition at 0.5 µM was -6% in assay [1] (0.5 µM, read-out: % Inhibition); -18% in assay [2] (0.5 µM, read-out: % Inhibition); 4% in assay [3] (0.5 µM, read-out: % Inhibition); -15% in assay [4] (0.5 µM, read-out: % Inhibition); -6% in assay [5] (0.5 µM, read-out: % Inhibition); 4% in assay [6] (0.5 µM, read-out: % Inhibition). For the same molecule, the inhibition at 10 µM is -14% in assay [1] (10 µM, read-out: % Inhibition); 24% in assay [2] (10 µM, read-out: % Inhibition); 58% in assay [3] (10 µM, read-out: % Inhibition); -7% in assay [4] (10 µM, read-out: % Inhibition); 23% in assay [5] (10 µM, read-out: % Inhibition); 9% in assay [6] (10 µM, read-out: % Inhibition).
